Measurements taken from ChEMBL document CHEMBL6103571, “Design, synthesis, and evaluation of carboxylic acid-substituted celecoxib isosteres as potential anti-inflammatory agents” (Eur J Med Chem, 2025).
Calls of active or inactive are those of the source. The rule behind the calls is not given here.

Tests used:
[1] = Toxicity in Sprague-Dawley rat assessed as ulcer score at 50 mg/kg, po administrated for 3 days and measured after 2 hrs; format: organism-based; conditions: in vivo, 74 h
[2] = Toxicity in Sprague-Dawley rat assessed as ulcer index at 50 mg/kg, po administrated for 3 days and measured after 2 hrs; format: organism-based; conditions: in vivo, 74 h
[3] = Toxicity in Sprague-Dawley rat assessed as average number of ulcers at 50 mg/kg, po administrated for 3 days and measured after 2 hrs; format: organism-based; conditions: in vivo, 74 h
Mus musculus [4] = assay: Anti-inflammatory activity against TPA-induced Kunming mouse ear edema model assessed as downregulation of COX-2 level in ear homogenate pre-administered topically via ear for 30 mins followed by TPA addition and measured after 6 hrs by Western blot analysis; format: functional, organism-based; conditions: dose 0.5-1 mg, route top, time 6.5 hrs
[5] = Toxicity in male Sprague-Dawley rat assessed as average number of ulcers at 100 mg/kg, po administrated for 3 days and measured after 2 hrs post last dose; format: organism-based; conditions: in vivo, 74 h
Mus musculus [6] = assay: Anti-inflammatory activity against TPA-induced Kunming mouse ear edema model assessed as inhibition of PGE2 production in ear homogenate pre-administered topically via ear for 30 mins followed by TPA addition and measured after 6 hrs by ELISA; format: functional, organism-based; conditions: dose 0.5-1 mg, route top, time 6.5 hrs
[7] = Cytotoxicity against mouse RAW264.7 cells incubated for 24 hrs by MTT assay; format: toxicity, cell-based
Mus musculus [8] = assay: Anti-inflammatory activity in TPA-induced male Kunming mouse model of ear edema assessed as reduction in ear weight at 0.5 to 1.0 mg, TOP pre-administered via ear for 30 mins followed by TPA addition and measured after 6 hrs; format: functional, organism-based; conditions: dose 0.5-1 mg, time 6.5 hrs
[9] = Toxicity in Sprague-Dawley rat assessed as ulcer index at 100 mg/kg, po administrated for 3 days and measured after 2 hrs post last dose; format: organism-based; conditions: in vivo, 74 h
RAW264.7 [10] = assay: Anti-inflammatory activity in LPS-induced mouse RAW264.7 cells assessed as downregulation of COX-2 expression at 12.5 to 50 uM preincubated for 1 hrs followed by LPS addition for 24 hrs by Western blotting analysis; format: functional, cell-based; conditions: dose 12.5-50 µM, time 25.0 hrs
[11] = target: T1, Prostaglandin G/H synthase 2 (Homo sapiens, UniProt P35354); assay: Inhibition of recombinant human COX-2 using arachidonic acid as substrate preincubated for 10 mins followed by substrate addition and measured after 2 mins by ELISA
T1 sequence (P35354 whole entry): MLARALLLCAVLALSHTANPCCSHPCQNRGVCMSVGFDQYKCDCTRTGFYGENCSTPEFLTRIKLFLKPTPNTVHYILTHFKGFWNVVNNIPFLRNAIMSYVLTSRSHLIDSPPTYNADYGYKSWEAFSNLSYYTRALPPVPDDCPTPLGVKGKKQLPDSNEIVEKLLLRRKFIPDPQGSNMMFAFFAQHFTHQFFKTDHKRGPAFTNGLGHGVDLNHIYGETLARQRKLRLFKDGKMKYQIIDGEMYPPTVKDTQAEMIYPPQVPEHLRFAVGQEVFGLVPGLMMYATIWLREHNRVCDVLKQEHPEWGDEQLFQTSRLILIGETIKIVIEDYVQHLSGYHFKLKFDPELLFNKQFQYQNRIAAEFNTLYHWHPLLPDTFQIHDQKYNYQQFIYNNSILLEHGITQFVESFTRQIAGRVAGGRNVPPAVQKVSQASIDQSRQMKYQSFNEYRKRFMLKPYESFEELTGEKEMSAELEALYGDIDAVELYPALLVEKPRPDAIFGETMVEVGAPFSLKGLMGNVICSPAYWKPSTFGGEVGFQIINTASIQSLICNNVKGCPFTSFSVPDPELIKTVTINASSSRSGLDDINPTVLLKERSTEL

RAW264.7 [12] = assay: Anti-inflammatory activity in LPS-induced mouse RAW264.7 cells assessed as reduction in PGE2 production preincubated for 1 hrs followed by LPS addition for 24 hrs by ELISA; format: functional, cell-based; conditions: dose 12.5-50 µM, time 25.0 hrs
Mus musculus [13] = assay: Anti-inflammatory activity in TPA-induced male Kunming mouse model of ear edema assessed as reduction in ear erythema pre-administered topically via ear for 30 mins followed by TPA addition and measured after 6 hrs; format: functional, organism-based; conditions: dose 0.5-1 mg, route top, time 6.5 hrs
[14] = Toxicity in male Sprague-Dawley rat assessed as ulcer score at 100 mg/kg, po administrated for 3 days and measured after 2 hrs post last dose; format: organism-based; conditions: in vivo, 74 h
[15] = target: T2, Prostaglandin G/H synthase 1 (Ovis aries, UniProt P05979); assay: Inhibition of ovine COX-1 using arachidonic acid as substrate preincubated for 10 mins followed by substrate addition and measured after 2 mins by ELISA
T2 sequence (P05979 whole entry): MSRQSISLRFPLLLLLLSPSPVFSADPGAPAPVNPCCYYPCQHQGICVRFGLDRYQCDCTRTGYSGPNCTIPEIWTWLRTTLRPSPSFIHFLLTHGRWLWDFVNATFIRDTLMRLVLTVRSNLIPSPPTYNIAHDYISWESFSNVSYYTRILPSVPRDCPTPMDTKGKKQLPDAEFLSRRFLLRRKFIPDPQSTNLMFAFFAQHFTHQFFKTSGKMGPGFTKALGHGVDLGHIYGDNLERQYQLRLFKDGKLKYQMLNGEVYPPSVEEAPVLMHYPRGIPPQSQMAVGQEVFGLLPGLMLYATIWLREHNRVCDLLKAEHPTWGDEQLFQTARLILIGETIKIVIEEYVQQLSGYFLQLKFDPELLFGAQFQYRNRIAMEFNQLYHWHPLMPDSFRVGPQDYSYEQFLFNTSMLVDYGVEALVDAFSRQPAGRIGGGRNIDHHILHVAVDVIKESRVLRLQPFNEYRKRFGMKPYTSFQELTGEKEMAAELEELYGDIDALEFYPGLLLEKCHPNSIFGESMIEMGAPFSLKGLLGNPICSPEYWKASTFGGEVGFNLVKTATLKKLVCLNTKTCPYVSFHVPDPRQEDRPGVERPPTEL

RAW264.7 [16] = assay: Anti-inflammatory activity against LPS-induced mouse RAW264.7 cells assessed as inhibition of NO production at 20 uM preincubated for 1 hrs followed by LPS addition and measured after 24 hrs by Griess reagent-based microplate reader analysis relative to control; format: functional; conditions: time 25 hrs
Mus musculus [17] = assay: Anti-inflammatory activity in TPA-induced male Kunming mouse model of ear edema assessed as reduction in ear thickness at 0.5 to 1.0 mg, TOP pre-administered via ear for 30 mins followed by TPA addition and measured after 6 hrs; format: functional, organism-based; conditions: dose 0.5-1 mg, time 6.5 hrs
[18] = Selectivity index, ratio of IC50 for ovine COX-1 to IC50 for human COX-2
Mus musculus [19] = assay: Anti-inflammatory activity in TPA-induced male Kunming mouse model of ear edema assessed as reduction in ear weight at 1.0 mg, TOP pre-administered via ear for 30 mins followed by TPA addition and measured after 6 hrs; format: functional, organism-based; conditions: time 6.5 hrs
Mus musculus [20] = assay: Anti-inflammatory activity in TPA-induced male Kunming mouse model of ear edema assessed as reduction in ear thickness at 1.0 mg, TOP pre-administered via ear for 30 mins followed by TPA addition and measured after 6 hrs; format: functional, organism-based; conditions: time 6.5 hrs
Mus musculus [21] = assay: Anti-inflammatory activity in TPA-induced male Kunming mouse model of ear edema assessed as reduction in ear erythema at 1.0 mg, TOP pre-administered via ear for 30 mins followed by TPA addition and measured after 6 hrs; format: functional, organism-based; conditions: time 6.5 hrs

SMILES	IC50 at 24 h [7]	inhibition at 20 µM (RAW264.7 [16])	further results
COc1ccc2c(c1)c(CC(=O)O)c(C)n2C(=O)c1ccc(Cl)cc1 [INDOMETHACIN]			Activity [1]: 15.6; UI [2]: 28.78; Activity [3]: 3.18
NS(=O)(=O)c1ccc(-c2nnc(SCC(=O)O)n2-c2ccc(I)cc2)cc1	> 100 µM	30.8%	Activity (Mus musculus [4]): Dose-dependent-effect; Activity [5]: 0.6; Activity (Mus musculus [6]): Dose-dependent-effect; Activity (Mus musculus [8]): Active; UI [9]: 5.2; Activity (RAW264.7 [10]): Active; IC50 [11]: 0.054 µM; Activity (RAW264.7 [12]): Dose-dependent-effect; Activity (Mus musculus [13]): Dose-dependent-effect; Activity [14]: 0.6; IC50 [15]: 16 µM; Activity (Mus musculus [17]): Active; Ratio IC50 [18]: 296
NS(=O)(=O)c1ccc(-c2nnc(SCC(=O)O)n2-c2cccc([N+](=O)[O-])c2)cc1	> 100 µM	13.2%	
NS(=O)(=O)c1ccc(-c2nnc(SCC(=O)O)n2-c2ccc([N+](=O)[O-])cc2)cc1	> 100 µM	23.9%	
NS(=O)(=O)c1ccc(-c2nnc(SCC(=O)O)n2-c2ccc(F)cc2)cc1	> 100 µM	15.4%	
NS(=O)(=O)c1ccc(-c2nnc(SCC(=O)O)n2-c2cccc(Br)c2)cc1	> 100 µM	14.1%	
NS(=O)(=O)c1ccc(-c2nnc(SCC(=O)O)n2-c2ccccc2Cl)cc1	> 100 µM	20.9%	
Cc1ccc(-n2c(SCC(=O)O)nnc2-c2ccc(S(N)(=O)=O)cc2)cc1	74.6 µM	22.3%	
NS(=O)(=O)c1ccc(-c2nnc(SCC(=O)O)n2-c2ccc(Br)cc2)cc1	> 100 µM	21%	
NS(=O)(=O)c1ccc(-c2nnc(SCC(=O)O)n2-c2cccc(F)c2)cc1	> 100 µM	15.1%	
NS(=O)(=O)c1ccc(-c2nnc(SCC(=O)O)n2-c2ccccc2C(F)(F)F)cc1	> 100 µM	20.7%	
COc1ccccc1-n1c(SCC(=O)O)nnc1-c1ccc(S(N)(=O)=O)cc1	> 100 µM	12.9%	
NS(=O)(=O)c1ccc(-c2nnc(SCC(=O)O)n2-c2cccc(I)c2)cc1	> 100 µM	22.5%	
NS(=O)(=O)c1ccc(-c2nnc(SCC(=O)O)n2-c2ccccc2I)cc1	> 100 µM	17.9%	
NS(=O)(=O)c1ccc(-c2nnc(SCC(=O)O)n2-c2cccc(Cl)c2)cc1	> 100 µM	19.1%	
NS(=O)(=O)c1ccc(-c2nnc(SCC(=O)O)n2-c2ccc(Cl)cc2)cc1	> 100 µM	22.4%	
Cc1ccc(-c2cc(C(F)(F)F)nn2-c2ccc(S(N)(=O)=O)cc2)cc1 [CELECOXIB]		38.1%	Activity (Mus musculus [19]): Active; Activity [5]: 0.8; UI [9]: 6.3; Activity [14]: 1.5; Activity (Mus musculus [20]): Active; Activity (Mus musculus [21]): Active
NS(=O)(=O)c1ccc(-c2nnc(SCC(=O)O)n2-c2ccccc2F)cc1	> 100 µM	13.6%	
NS(=O)(=O)c1ccc(-c2nnc(SCC(=O)O)n2-c2ccccc2Br)cc1	> 100 µM	14%	
COc1cccc(-n2c(SCC(=O)O)nnc2-c2ccc(S(N)(=O)=O)cc2)c1	> 100 µM	15.6%	
Cc1ccccc1-n1c(SCC(=O)O)nnc1-c1ccc(S(N)(=O)=O)cc1	> 100 µM	18.8%	
COc1ccc(-n2c(SCC(=O)O)nnc2-c2ccc(S(N)(=O)=O)cc2)cc1	> 100 µM	18.7%	
NS(=O)(=O)c1ccc(-c2nnc(SCC(=O)O)n2-c2ccc(C(F)(F)F)cc2)cc1	62.2 µM	22.6%	
Cc1cccc(-n2c(SCC(=O)O)nnc2-c2ccc(S(N)(=O)=O)cc2)c1	76.6 µM	17.7%	
NS(=O)(=O)c1ccc(-c2nnc(SCC(=O)O)n2-c2cccc(C(F)(F)F)c2)cc1	> 100 µM	21.1%	
NS(=O)(=O)c1ccc(-c2nnc(SCC(=O)O)n2-c2ccccc2[N+](=O)[O-])cc1	> 100 µM	13.8%	
